Data set [1] has as its system TCDD induced luciferase activity (human CYP1A1 promoter). Briefly: Luciferase reporter gene assay in HepG2.101L cells. In kind it is cell-based. Here is the method: The human hepatoma cell line HepG2 were stably transfected with a luciferase expression vector downstream from exon one, a portion of intron one, and 1612 base pairs of the 5′-flanking sequence of the human CYP1A gene to generate the cell line HepG2.101L, as previously described (Postlind et al., Toxicol. Appl. Pharmacol 118:255-262 (1993), which is hereby incorporated by reference in its entirety). Cells were grown in Dulbecco's modified Eagle's medium (Mediatech Herndon, Va.) supplemented with 10% fetal bovine serum and Gentamicin (DMEM) at 37° C. in a humid atmosphere with 5% CO2. Treatment and reporter gene activity were assessed as previously described (Palermo et al., Chem. Res. Toxicol. 16:865-872 (2003), which is hereby incorporated by reference in its entirety) with the following changes: HepG2.101L cells were added to hydrated Cytodex™ microcarrier beads (Sigma) to achieve 1.5×10^6 cells per 30 mg beads per 10 ml DMEM. Luminescence was detected using the Packard Lumicount™ (Meriden, Conn.).
A general note: Reporter assays use an easily measured gene product as a stand-in for the process of interest.

In the next data set the test system is chicken hsp90. Briefly: Affinity chromatography on EGCG-conjugated Sepharose, hsp90 point and truncation mutants. In kind it is binding. An excerpt:
Murine AhR and ARNT cDNA (obtained from J. Whitlock and O. Hankinson, respectively) were inserted into pcDNA3 (Invitrogen, Carlsbad, Calif.). Chicken hsp90 constructs (FIG. 5), c90711hsp (wild-type), c90G94D (wild-type point mutant gly94→Asp (Grenert et al., J. Biol. Chem. 272:23843-23850 (1997), which is hereby incorporated by reference in its entirety), c90D92A (wild-type point mutant Asp92→Ala (Sullivan et al., J. Biol. Chem. 268:20373-20379 (1993), which is hereby incorporated by reference in its entirety), c90N221 (wild-type truncation mutant encoding a.a. 221-728 (Sullivan et al., J. Biol. Chem. 268:20373-20379 (1993), which is hereby incorporated by reference in its entirety)), c90N303 (a.a. 303-728) and c90N538 (a.a. 538-728) were kind gifts from Dr. D. Toft (Rochester, Minn.). The C-terminal truncation mutant c900507 (a.a. 1-221) was obtained from Dr. L. Neckers (Rockville, Md.) (Grenert et al., J. Biol. Chem. 272:23843-23850 (1997); Marcu et al., J. Biol. Chem. 275:37181-37186 (2000), which are hereby incorporated by reference in their entirety). Human p23 cDNA was excised from pQE80-p23 (obtained from W. Chan Stockton, Calif.) by sequential digests using the restriction enzymes Sad (3′-end) and BamHI (5′-end) and inserted into the similarly digested pET28a (Novagen, Madison, Wis.). The mouse histidine-tagged XAP2 construct, pET-AIP (Bell et al., J. Biol. Chem. 275:36407-36414 (2000), which is hereby incorporated by reference in its entirety), was a kind gift from Dr. D. Bell (Nottingham, UK). All constructs are in the T7 orientation with the exception of c900507, which is driven by an SP6 promoter.
AhR, ARNT, hsp90 (wild-type, point mutants, and truncation mutants), p23, and XAP2 were generated (separately) by coupled transcription/translation in rabbit reticulocyte lysate (RRL) using the TNT® system according to the manufacturer's protocol (Promega, Madison Wis.). In this system, ^35S-methionine was included in the transcription/translation mix to generate ^35S-labeled protein.
EGCG was conjugated to cyanogen bromide (CNBr)-activated Sepharose (Sigma). […]

The structures appear in SMILES notation.

A word on the IC50: it is the concentration needed to halve the response being measured. Regarding `O=C(O[C@@H]1Cc2c(O)cc(O)cc2O[C@@H]1c1cc(O)c(O)c(O)c1)c1cc(O)c(O)c(O)c1` [EGCG, epigallocatechin gallate], the IC50 in data set [1] (500 pM TCDD, 4 h, read-out: IC50, inhibition of TCDD induced luciferase activity) is about 100 µM. The “induction of luciferase activity, treatment alone” value in data set [1] (EGCG alone) was “did not induce luciferase activity significantly over background”. Moreover, the “binding of C-terminal hsp90 fragments” value with chicken hsp90 (all C-terminal fragments (N221, N303, N538)) is listed as “bound EGCG”. The “binding of N-terminal point mutants D92A, G94D to EGCG-Sepharose” value in the data set on chicken hsp90 (compared with wild type hsp90) is “bound to EGCG-Sepharose as well as or better than the wild type hsp90”. For the same molecule, in the data set with chicken hsp90 (fragment containing the GA binding site), the “binding of amino-terminal hsp90 fragment C507 to immobilized EGCG” value is on record as “failed to bind to immobilized EGCG”.

These data come from patent US20120165403A1, “METHODS OF INHIBITING THE ACTIVITY OF HSP90 AND/OR ARYL HYDROCARBON RECEPTOR” (UNIVERSITY OF ROCHESTER, priority 2004, published 2012).
